Experimental data published in patent US20160058829A1, “ANTI-FIBROTIC PEPTIDES AND THEIR USE IN METHODS FOR TREATING DISEASES AND DISORDERS CHARACTERIZED BY FIBROSIS” (Thrasos Innovation, Inc., priority 2011, published 2016).
Positions of bridges follow the written chain, without caps; N, C: chain ends. Non-standard residues stand in square brackets, D forms with d. *: point of attachment. Dap = NC[C@H](N)C(=O)O; For = O=C*

Tested on: human proximal tubule epithelial cells (HK2)
Test: D-glucose-induced EMT assay, E-cadherin immunofluorescence with colorimetric image analysis
Type: cell-based
Details: for Percent inhibition of D-glucose-induced EMT: 0% = D-glucose untreated, 100% = media without D-glucose
Procedure: Chronic hyperglycemia is a known cause of renal fibrosis in type 2 diabetes. The assay in this example induces the transdifferentiation from the epithelial to the mesenchymal phenotype (EMT) in human proximal tubule epithelial cells (HK2) by exposing them to high levels of D-glucose (100 mM and 200 mM). […] Exposure to 100 mM D-glucose results in the loss of E-cadherine expression as evidenced by the loss of the fluorescene signal. Using this assay test compounds are evaluated based on their ability to inhibit the EMT processes in the presence of high levels of D-glucose. FIGS. 4-16 are fluorescence micrographs of HK2 cells exposed to 100 mM D-glucose and 100 uM of SEQ IS NOs 1 through 11, respectively. Note that all but SEQ ID NOs 10 and 11 were able to preserve the epithelial phenotype (i.e., inhibit the EMT).
Results are provided in the context of FIG. 1 and Table 3, below. In Table 3 below, compound response is scored using image analysis as described herein in the method of Methods and Materials, part C. A 0% response corresponds to the signal for 100 mM (or 200 mM) D-glucose (untreated) while the 100% response corresponds to the signal for media in the absence of D-glucose.
It has been shown that transdifferentiation of proximal tubular epithelial cells is a critical step in the development of renal fibrosis, and that this is associated with a loss of the epithelial phenotypic marker, E-cadherin expression. This provides the basis for the development of a cell-based screening assay in which high concentrations of D-Glucose (50-100 mM) are used to induce a loss of E-cadherin expression in human renal proximal tubular epithelial (HK-2) cells, and compounds are tested for their ability to reverse the loss E-cadherin expression.
Materials: • Human proximal tubular epithelial cells, HK-2 (ATCC #CRL-2190) • Serum-free keratinocyte medium (GIBCO #17005-042, K-SFM) • Epidermal growth factor (EGF: 5 ng/mL) • Bovine pituitary extract (BPE: 40 ug/mL) • Primary antibody, Mouse IgG anti-E-cadherin (R&D Systems # MAB1838) • BSA [Sigma #A7030] • secondary antibody, FITC-conjugated Goat anti-mouse IgG (Fab2) fragment (Sigma-Aldrich # F-2653) • Paraformaldehyde (10%)) • Triton X-100 (Sigma # T-9284) • PBS (Fisher Scientific #BP399-1) • D-PBS (Invitrogen #14190-144) • Polypropylene tips (Axygen, Inc. 0.5-10 uL, cat # T-300-L-R; 1-200 uL, Cat # T-200-L-R; 1-1000 uL, Cat # T-1000-C-L-R) • 50 mL polypropylene culture tubes (Fisher Scientific, cat #06-443-18) • 24-well Coster cell culture plates (Fisher Scientific #07-200-84)
Reagents & Test Samples: • Positive control: BMP-7, assayed at concentrations 0.1 and 1 ug/mL • Test compounds (peptides): each tested at final concentrations 100 uM and 200 uM.
Assay Procedure for Cell Culture Assay: • Run assay in 24-well culture plates. • Seed HK-2 cells at a density between 25,000 and 30,000 cells per well in lmL K-SFM medium with supplements added (growth medium) • Incubate HK-2 cells for 24 hours at 37° C., and let cells attach the plate • Next Day afternoon, change the medium with K-SFM medium with no added supplements (serum free medium) in all wells except the first two control wells. • Continue incubating HK-2 cells overnight at 37° C. • Next Day, aspirate the medium from all wells. Incubate the cells in growth medium (first two control wells) or expose them to test compounds for 2 hours at 37° C. Final concentrations of each Test compound are 100 and 200 uM. BMP-7 serves as a positive control in the assay. • After incubation, add D-glucose to all wells except first two control wells. Final concentrations of D-Glucose are 50 and 100 mM. • Incubate HK-2 cells for 60 hours at 37° C. • Aspirate the medium from all wells. To the wells, add pre-warmed growth medium or serum free medium containing D-glucose alone or D-glucose and test compound or D-glucose and BMP-7. Final concentrations of D-Glucose and Test compound are the same as above. • Continue incubating HK-2 cells for 24 hours at 37° C. […]

| Substance | Percent inhibition of D-glucose-induced EMT (100 uM peptide) | Percent inhibition of D-glucose-induced EMT (200 uM peptide) | preservation of the epithelial phenotype (inhibition of EMT), anti-fibrotic effect (HK2 cells, high D-glucose) |
| --- | --- | --- | --- |
| 3 (H-[Dap]YFDDSSNVLDKKYRS-OH; SMILES CC(C)C[C@H](NC(=O)[C@@H](NC(=O)[C@H](CC(N)=O)NC(=O)[C@H](CO)NC(=O)[C@H](CO)NC(=O)[C@H](CC(=O)O)NC(=O)[C@H](CC(=O)O)NC(=O)[C@H](Cc1ccccc1)NC(=O)[C@H](Cc1ccc(O)cc1)NC(=O)[C@@H](N)CN)C(C)C)C(=O)N[C@@H](CC(=O)O)C(=O)N[C@@H](CCCCN)C(=O)N[C@@H](CCCCN)C(=O)N[C@@H](Cc1ccc(O)cc1)C(=O)N[C@@H](CCCNC(=N)N)C(=O)N[C@@H](CO)C(=O)O) [compound 3] | 67% | 128% | – |
| 1 (H-CYFDDSSNVLCKKYRS-OH; disulfide 1-11; SMILES CC(C)C[C@@H]1NC(=O)[C@H](C(C)C)NC(=O)[C@H](CC(N)=O)NC(=O)[C@H](CO)NC(=O)[C@H](CO)NC(=O)[C@H](CC(=O)O)NC(=O)[C@H](CC(=O)O)NC(=O)[C@H](Cc2ccccc2)NC(=O)[C@H](Cc2ccc(O)cc2)NC(=O)[C@@H](N)CSSC[C@@H](C(=O)N[C@@H](CCCCN)C(=O)N[C@@H](CCCCN)C(=O)N[C@@H](Cc2ccc(O)cc2)C(=O)N[C@@H](CCCNC(=N)N)C(=O)N[C@@H](CO)C(=O)O)NC1=O) [compound 1] | 125% | 98% | – |
| 10 (H-CYFNDSSQVLCKRYRS-OH; disulfide 1-11; SMILES CC(C)C[C@@H]1NC(=O)[C@H](C(C)C)NC(=O)[C@H](CCC(N)=O)NC(=O)[C@H](CO)NC(=O)[C@H](CO)NC(=O)[C@H](CC(=O)O)NC(=O)[C@H](CC(N)=O)NC(=O)[C@H](Cc2ccccc2)NC(=O)[C@H](Cc2ccc(O)cc2)NC(=O)[C@@H](N)CSSC[C@@H](C(=O)N[C@@H](CCCCN)C(=O)N[C@@H](CCCNC(=N)N)C(=O)N[C@@H](Cc2ccc(O)cc2)C(=O)N[C@@H](CCCNC(=N)N)C(=O)N[C@@H](CO)C(=O)O)NC1=O) [compound 10] | 20% | 17% | – |
| 6 (For-CYYDNSSSVLCKRYRS-OH; disulfide 1-11; SMILES CC(C)C[C@@H]1NC(=O)[C@H](C(C)C)NC(=O)[C@H](CO)NC(=O)[C@H](CO)NC(=O)[C@H](CO)NC(=O)[C@H](CC(N)=O)NC(=O)[C@H](CC(=O)O)NC(=O)[C@H](Cc2ccc(O)cc2)NC(=O)[C@H](Cc2ccc(O)cc2)NC(=O)[C@@H](NC=O)CSSC[C@@H](C(=O)N[C@@H](CCCCN)C(=O)N[C@@H](CCCNC(=N)N)C(=O)N[C@@H](Cc2ccc(O)cc2)C(=O)N[C@@H](CCCNC(=N)N)C(=O)N[C@@H](CO)C(=O)O)NC1=O) [compound 6] | 88% | 109% | – |
| (H)-CYFNDSSQVLCKRYRS-(OH) (H-CYFNDSSQVLCKRYRS-OH; disulfide 1-11; SMILES CC(C)C[C@@H]1NC(=O)[C@H](C(C)C)NC(=O)[C@H](CCC(N)=O)NC(=O)[C@H](CO)NC(=O)[C@H](CO)NC(=O)[C@H](CC(=O)O)NC(=O)[C@H](CC(N)=O)NC(=O)[C@H](Cc2ccccc2)NC(=O)[C@H](Cc2ccc(O)cc2)NC(=O)[C@@H](N)CSSC[C@@H](C(=O)N[C@@H](CCCCN)C(=O)N[C@@H](CCCNC(=N)N)C(=O)N[C@@H](Cc2ccc(O)cc2)C(=O)N[C@@H](CCCNC(=N)N)C(=O)N[C@@H](CO)C(=O)O)NC1=O) [SEQ ID NO: 10] | – | – | very weak anti-fibrotic effect |
| 4 (H-CYYDNSSSVLCKRYRS-OH; disulfide 1-11; not fully specified (residue 14)) [compound 4] | 99% | 130% | – |
| 9 (H-[Dap]YYDNSSSVLDKRYRS-OH; SMILES CC(C)C[C@H](NC(=O)[C@@H](NC(=O)[C@H](CO)NC(=O)[C@H](CO)NC(=O)[C@H](CO)NC(=O)[C@H](CC(N)=O)NC(=O)[C@H](CC(=O)O)NC(=O)[C@H](Cc1ccc(O)cc1)NC(=O)[C@H](Cc1ccc(O)cc1)NC(=O)[C@@H](N)CN)C(C)C)C(=O)N[C@@H](CC(=O)O)C(=O)N[C@@H](CCCCN)C(=O)N[C@@H](CCCNC(=N)N)C(=O)N[C@@H](Cc1ccc(O)cc1)C(=O)N[C@@H](CCCNC(=N)N)C(=O)N[C@@H](CO)C(=O)O) [compound 9] | 83% | 125% | – |
| 8 (H-CYYDNSSSVLCKKYRS-OH; disulfide 1-11; SMILES CC(C)C[C@@H]1NC(=O)[C@H](C(C)C)NC(=O)[C@H](CO)NC(=O)[C@H](CO)NC(=O)[C@H](CO)NC(=O)[C@H](CC(N)=O)NC(=O)[C@H](CC(=O)O)NC(=O)[C@H](Cc2ccc(O)cc2)NC(=O)[C@H](Cc2ccc(O)cc2)NC(=O)[C@@H](N)CSSC[C@@H](C(=O)N[C@@H](CCCCN)C(=O)N[C@@H](CCCCN)C(=O)N[C@@H](Cc2ccc(O)cc2)C(=O)N[C@@H](CCCNC(=N)N)C(=O)N[C@@H](CO)C(=O)O)NC1=O) [compound 8] | 155% | 104% | – |
| 7 (Ac-CYYDNSSSVLCKRYRS-OH; disulfide 1-11; SMILES CC(=O)N[C@H]1CSSC[C@@H](C(=O)N[C@@H](CCCCN)C(=O)N[C@@H](CCCNC(=N)N)C(=O)N[C@@H](Cc2ccc(O)cc2)C(=O)N[C@@H](CCCNC(=N)N)C(=O)N[C@@H](CO)C(=O)O)NC(=O)[C@H](CC(C)C)NC(=O)[C@H](C(C)C)NC(=O)[C@H](CO)NC(=O)[C@H](CO)NC(=O)[C@H](CO)NC(=O)[C@H](CC(N)=O)NC(=O)[C@H](CC(=O)O)NC(=O)[C@H](Cc2ccc(O)cc2)NC(=O)[C@H](Cc2ccc(O)cc2)NC1=O) [compound 7] | 65% | 103% | – |
| 11 (H-CYYDDSSSVLCKKYRS-OH; disulfide 1-11; SMILES CC(C)C[C@@H]1NC(=O)[C@H](C(C)C)NC(=O)[C@H](CO)NC(=O)[C@H](CO)NC(=O)[C@H](CO)NC(=O)[C@H](CC(=O)O)NC(=O)[C@H](CC(=O)O)NC(=O)[C@H](Cc2ccc(O)cc2)NC(=O)[C@H](Cc2ccc(O)cc2)NC(=O)[C@@H](N)CSSC[C@@H](C(=O)N[C@@H](CCCCN)C(=O)N[C@@H](CCCCN)C(=O)N[C@@H](Cc2ccc(O)cc2)C(=O)N[C@@H](CCCNC(=N)N)C(=O)N[C@@H](CO)C(=O)O)NC1=O) [compound 11] | – | −13% | – |
| 5 (H-CYYDNSSSVLCKRYRS-OH; disulfide 1-11; SMILES CC(C)C[C@@H]1NC(=O)[C@H](C(C)C)NC(=O)[C@H](CO)NC(=O)[C@H](CO)NC(=O)[C@H](CO)NC(=O)[C@H](CC(N)=O)NC(=O)[C@H](CC(=O)O)NC(=O)[C@H](Cc2ccc(O)cc2)NC(=O)[C@H](Cc2ccc(O)cc2)NC(=O)[C@@H](N)CSSC[C@@H](C(=O)N[C@@H](CCCCN)C(=O)N[C@@H](CCCNC(=N)N)C(=O)N[C@@H](Cc2ccc(O)cc2)C(=O)N[C@@H](CCCNC(=N)N)C(=O)N[C@@H](CO)C(=O)O)NC1=O) [compound 5] | 33% | 84% | – |
